These results are taken from patent US20230175032A1, “EFFICIENT SYNTHESIS OF OMEGA-GLYCOSIDES AND ALKYL GLYCOSIDES” (AMPHISTAR, priority 2020, published 2023).

For this test, the system named is S. bombicola Δcyp52M1Δfao1 strain. Nature of the test: shake flask cultivation fed with primary alcohols, viability as colony forming units. The following applies: alcohol added after 48 h of cultivation; in contrast to all other fed substrates (FIG. 8A). Format: cell-based, Starmerella bombicola. The procedure:
Production experiments using S. bombicola were performed using the production medium described by Lang et al., (2000). For shake flask experiments, 5 mL tube cultures were set up 24 h (30° C.), before transferring to shake flasks (4% inoculation). Production experiments were executed with feeding of fatty alcohols: oleyl alcohol, stearyl alcohol, lauryl alcohol, myristyl alcohol or cetyl alcohol which were added after 48 h of cultivation. The Δcyp52M1Δfao1 strain was also assessed without addition of the hydrophobic alcohol. For every production experiment, cultivation was stopped when glucose was depleted from the medium. […]
Optical density (OD) of cultures was measured at 600 nm using the Jasco V 630 Bio spectrophotometer (Jasco Europe) of 1 mL samples diluted with physiological solution (9 g/L NaCl). The viability of yeast cells in cultivation experiments was assessed by determining colony forming units (CFUs) which were expressed as the average logarithm of CFUs per culture volume as log(CFU/mL) (Saerens, Saey, et al., 2011). Alternatively, Cell Dry Weight (CDW) was determined by centrifuging 1 mL fermentation samples at 14000 rpm for 5 min in tared Eppendorf tubes, and subsequently washing the cell pellets twice with 1 mL physiological solution. […] The CDW (g/L) was calculated after subtraction of the empty weight of the Eppendorf tube.

Consider `CCCCCCCCCCCCO` [lauryl alcohol], for which the CFUs result was “significant drop”.
